Test results as given in patent US20160046618A1, “Cyclopropyl Fused Thiazin-2-Amine Compounds as Beta-Secretase Inhibitors and Methods of Use” (AMGEN INC., priority 2014, published 2016).

Tests used:
[1] = biological target: human recombinant BACE1 (Homo sapiens (Human), UniProt P56817); assay: In vitro enzymatic BACE1 FRET assay; type: biochemical; settings: read-out: IC50 IP (μM) BACE1 enzyme
Procedure, shortened: (§1)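 Fluorescence from cleavage of a quenched peptide spanning the BACE site (50 nM) was read at 488 nm excitation, 590 nm emission. Purified enzyme (Ni-NTA) and compound reacted for one hour before a Tris stop shifted pH to neutral.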

[2] = tested on: Aβ40 in conditioned medium of cells stably expressing Amyloid Precursor Protein (APP); assay: In vitro BACE-1 cell-based assay (Aβ40 sandwich ELISA); settings: read-out: IC50 IP (μM) BACE1 cell
Procedure, shortened: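 Aβ40 in supernatants measured by time-resolved fluorescence sandwich ELISA, with pAb40 as capture and biotin-6E10 as detector antibody, each incubated at 4 °C.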

[3] = biological target: Recombinant Cat D (Homo sapiens (Human), UniProt P07339); assay: In vitro enzymatic Cathepsin D (Cat D) FRET assay; type: biochemical; settings: read-out: IC50 IP (μM) CatD
Chain of Recombinant Cat D (P07339 65-412): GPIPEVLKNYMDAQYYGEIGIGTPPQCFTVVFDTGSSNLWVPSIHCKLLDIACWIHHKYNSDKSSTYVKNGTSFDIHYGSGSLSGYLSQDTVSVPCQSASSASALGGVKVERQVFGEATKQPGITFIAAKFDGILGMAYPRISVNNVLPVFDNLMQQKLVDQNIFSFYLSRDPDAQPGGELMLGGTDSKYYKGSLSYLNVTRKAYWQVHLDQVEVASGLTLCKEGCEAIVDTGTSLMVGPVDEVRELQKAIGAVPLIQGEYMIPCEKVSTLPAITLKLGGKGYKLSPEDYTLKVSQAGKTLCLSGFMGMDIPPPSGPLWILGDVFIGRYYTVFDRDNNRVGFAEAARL
Procedure, shortened: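 Recombinant Cat D expressed in CHO cells, assayed in 0.05 M citrate pH 3.5 with 5 mM CHAPS and 10% DMSO final. Reaction started with 20 nM FRET peptide substrate, incubated one hour, then stopped by Tris buffer to neutral pH; fluorescence read at ex 500/em 580 nm.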

[4] = biological target: human recombinant BACE2 (Homo sapiens (Human), UniProt Q9Y5Z0); assay: In vitro enzymatic BACE2 FRET assay; type: biochemical; settings: read-out: IC50 IP (μM) BACE2 enzyme
Chain of human recombinant BACE2 (Q9Y5Z0 63-518): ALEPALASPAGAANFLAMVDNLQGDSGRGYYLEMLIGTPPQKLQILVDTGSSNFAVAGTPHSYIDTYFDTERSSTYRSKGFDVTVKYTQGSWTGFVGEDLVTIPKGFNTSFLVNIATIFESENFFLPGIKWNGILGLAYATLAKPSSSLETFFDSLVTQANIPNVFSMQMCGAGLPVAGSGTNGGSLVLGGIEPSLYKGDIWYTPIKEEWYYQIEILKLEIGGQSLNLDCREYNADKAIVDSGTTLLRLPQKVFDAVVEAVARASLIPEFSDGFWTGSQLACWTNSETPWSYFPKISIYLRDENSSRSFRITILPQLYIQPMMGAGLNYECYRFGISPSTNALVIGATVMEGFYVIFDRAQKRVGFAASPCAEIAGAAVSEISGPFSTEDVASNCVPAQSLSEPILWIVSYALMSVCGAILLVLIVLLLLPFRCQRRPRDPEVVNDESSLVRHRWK
Procedure, shortened: as §1

Chain of human recombinant BACE1 (P56817 46-501): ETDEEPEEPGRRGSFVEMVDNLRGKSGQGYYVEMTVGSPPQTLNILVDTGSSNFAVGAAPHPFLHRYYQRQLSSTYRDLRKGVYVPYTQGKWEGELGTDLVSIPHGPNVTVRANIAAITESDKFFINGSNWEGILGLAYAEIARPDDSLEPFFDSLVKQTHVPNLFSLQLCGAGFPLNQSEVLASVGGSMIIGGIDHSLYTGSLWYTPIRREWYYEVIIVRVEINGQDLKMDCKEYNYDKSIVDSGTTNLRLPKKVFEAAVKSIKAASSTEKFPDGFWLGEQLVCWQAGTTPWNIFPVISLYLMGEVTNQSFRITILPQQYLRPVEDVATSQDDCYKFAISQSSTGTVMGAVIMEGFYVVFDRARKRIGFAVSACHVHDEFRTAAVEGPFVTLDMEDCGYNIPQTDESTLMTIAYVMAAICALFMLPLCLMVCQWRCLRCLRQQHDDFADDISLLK

| IC50 [1] [µM] | IC50 [2] [µM] | IC50 [3] [µM] | IC50 [4] [µM] | Structure (SMILES) |
| --- | --- | --- | --- | --- |
| 0.0014 | 0.011 | 862 | 0.171 | COC[C@]12C[C@H]1[C@@](C)(c1cc(NC(=O)c3cnc(OCC4CCC4)cn3)ccc1F)N=C(N)S2 [Example 1054, N-(3-((1S,5S,6S)-3-amino-1-(methoxymethyl)-5-methyl-2-thia-4-azabicyclo[4.1.0]hept-3-en-5-yl)-4-fluorophenyl)-5-(cyclobutylmethoxy)-2-pyrazinecarboxamide] |
| 0.0079 | 0.022 | 1330 | 0.498 | COC[C@]12C[C@H]1[C@@](C)(c1cc(NC(=O)c3cnc(OCC4COC4)cn3)ccc1F)N=C(N)S2 [Example 1055, N-(3-((1S,5S,6S)-3-amino-1-(methoxymethyl)-5-methyl-2-thia-4-azabicyclo[4.1.0]hept-3-en-5-yl)-4-fluorophenyl)-5-(3-oxetanylmethoxy)-2-pyrazinecarboxamide] |
| 0.0014 | 0.018 | 1240 | 0.317 | COC[C@]12C[C@H]1[C@@](C)(c1cc(NC(=O)c3cnc(OCC(C)C)cn3)ccc1F)N=C(N)S2 [Example 1056, N-(3-((1S,5S,6S)-3-amino-1-(methoxymethyl)-5-methyl-2-thia-4-azabicyclo[4.1.0]hept-3-en-5-yl)-4-fluorophenyl)-5-(2-methylpropoxy)-2-pyrazinecarboxamide] |
| 0.0023 | 0.0033 | > 400 | 0.158 | COC[C@]12C[C@H]1[C@@](C)(c1cc(NC(=O)c3cnc(OCC(F)F)cn3)ccc1F)N=C(N)S2 [Example 1057, N-(3-((1S,5S,6S)-3-amino-1-(methoxymethyl)-5-methyl-2-thia-4-azabicyclo[4.1.0]hept-3-en-5-yl)-4-fluorophenyl)-5-(2,2-difluoroethoxy)-2-pyrazinecarboxamide] |
| > 0.016 | 0.01 | > 400 | 0.498 | COC[C@]12C[C@H]1[C@@](C)(c1cc(NC(=O)c3cnc(OCC4CCO4)cn3)ccc1F)N=C(N)S2 (stereo partly drawn) [Example 1058, N-(3-((1S,5S,6S)-3-amino-1-(methoxymethyl)-5-methyl-2-thia-4-azabicyclo[4.1.0]hept-3-en-5-yl)-4-fluorophenyl)-5-(oxetan-2-ylmethoxy)pyrazine-2-carboxamide] |
| 0.0264 | 0.0238 | 2050 | 1.63 | COC[C@]12C[C@H]1[C@@](C)(c1cc(NC(=O)c3cnc(OC4COC4)cn3)ccc1F)N=C(N)S2 [Example 1067, N-(3-((1S,5S,6S)-3-amino-1-(methoxymethyl)-5-methyl-2-thia-4-azabicyclo[4.1.0]hept-3-en-5-yl)-4-fluorophenyl)-5-(oxetan-3-yloxy)pyrazine-2-carboxamide] |

Second part, the molecule before the results:

| Structure (SMILES) | IC50 [1] [µM] | IC50 [2] [µM] | IC50 [3] [µM] | IC50 [4] [µM] |
| --- | --- | --- | --- | --- |
| CC#CCCOc1cnc(C(=O)Nc2cc(F)c(F)c([C@@]3(C)N=C(N)S[C@@]4(COC)C[C@H]43)c2)cn1 [Example 1059, N-(3-((1S,5S,6S)-3-amino-1-(methoxymethyl)-5-methyl-2-thia-4-azabicyclo[4.1.0]hept-3-en-5-yl)-4,5-difluorophenyl)-5-(3-pentyn-1-yloxy)-2-pyrazinecarboxamide] | 0.011 | 0.02 | 1320 | 0.069 |
| C#CCCOc1cnc(C(=O)Nc2cc(F)c(F)c([C@@]3(C)N=C(N)S[C@@]4(COC)C[C@H]43)c2)cn1 [Example 1060, N-(3-((1S,5S,6S)-3-amino-1-(methoxymethyl)-5-methyl-2-thia-4-azabicyclo[4.1.0]hept-3-en-5-yl)-4,5-difluorophenyl)-5-(3-butyn-1-yloxy)-2-pyrazinecarboxamide] | 0.0074 | 0.0076 | > 400 | 0.13 |
| COC[C@]12C[C@H]1[C@@](C)(c1cc(NC(=O)c3cnc(OCC4(C)CC4)cn3)cc(F)c1F)N=C(N)S2 [Example 1061, N-(3-((1S,5S,6S)-3-amino-1-(methoxymethyl)-5-methyl-2-thia-4-azabicyclo[4.1.0]hept-3-en-5-yl)-4,5-difluorophenyl)-5-((1-methylcyclopropyl)methoxy)-2-pyrazinecarboxamide] | 0.0047 | 0.0039 | > 400 | 0.17 |
| COC[C@]12C[C@H]1[C@@](C)(c1cc(NC(=O)c3cnc(OCC4(C)COC4)cn3)cc(F)c1F)N=C(N)S2 [Example 1062, N-(3-((1S,5S,6S)-3-amino-1-(methoxymethyl)-5-methyl-2-thia-4-azabicyclo[4.1.0]hept-3-en-5-yl)-4,5-difluorophenyl)-5-((3-methyl-3-oxetanyl)methoxy)-2-pyrazinecarboxamide] | > 16 | 0.022 | > 400 | 0.658 |
| COC[C@]12C[C@H]1[C@@](C)(c1cc(NC(=O)c3cnc(OCCF)cn3)cc(F)c1F)N=C(N)S2 [Example 1064, N-(3-((1S,5S,6S)-3-amino-1-(methoxymethyl)-5-methyl-2-thia-4-azabicyclo[4.1.0]hept-3-en-5-yl)-4,5-difluorophenyl)-5-(2-fluoroethoxy)-2-pyrazinecarboxamide] | 0.0027 | 0.0047 | > 400 | 0.081 |
| COC[C@]12C[C@H]1[C@@](C)(c1cc(NC(=O)c3cnc(OCC(F)(F)F)cn3)cc(C)c1F)N=C(N)S2 [Example 1065, N-(3-((1S,5S,6S)-3-amino-1-(methoxymethyl)-5-methyl-2-thia-4-azabicyclo[4.1.0]hept-3-en-5-yl)-4-fluoro-5-methylphenyl)-5-(2,2,2-trifluoroethoxy)-2-pyrazinecarboxamide] | 0.000256 | 0.00294 | 1580 | 0.0636 |
| COC[C@]12C[C@H]1[C@@](C)(c1cc(NC(=O)c3ccc(Cl)cn3)cc(C)c1F)N=C(N)S2 [Example 1066, N-(3-((1S,5S,6S)-3-amino-1-(methoxymethyl)-5-methyl-2-thia-4-azabicyclo[4.1.0]hept-3-en-5-yl)-4-fluoro-5-methylphenyl)-5-chloro-2-pyridinecarboxamide] | 0.00161 | 0.00347 | > 400 | 0.00099 |
| COC[C@]12C[C@H]1[C@@](C)(c1cc(NC(=O)c3cnc(OCC(C)(C)C)cn3)cc(F)c1F)N=C(N)S2 [Example 1069, N-(3-((1S,5S,6S)-3-amino-1-(methoxymethyl)-5-methyl-2-thia-4-azabicyclo[4.1.0]hept-3-en-5-yl)-4,5-difluorophenyl)-5-(neopentyloxy)pyrazine-2-carboxamide] | 0.0174 | 0.214 | 1060 | 0.878 |
| COC[C@]12C[C@H]1[C@@](C)(c1cc(NC(=O)c3cnc(OCc4ncco4)cn3)cc(C)c1F)N=C(N)S2 [Example 1071, N-(3-((1S,5S,6S)-3-amino-1-(methoxymethyl)-5-methyl-2-thia-4-azabicyclo[4.1.0]hept-3-en-5-yl)-4-fluoro-5-methylphenyl)-5-(oxazol-2-ylmethoxy)pyrazine-2-carboxamide] | 0.000768 | 0.00025 | 1430 | 0.0304 |
| C#CCOc1cnc(C(=O)Nc2cc(C)c(F)c([C@@]3(C)N=C(N)S[C@@]4(C(F)F)C[C@@H]34)c2)cn1 [Example 1072, N-(3-((1S,5S,6S)-3-amino-1-(difluoromethyl)-5-methyl-2-thia-4-azabicyclo[4.1.0]hept-3-en-5-yl)-4-fluoro-5-methylphenyl)-5-(prop-2-yn-1-yloxy)pyrazine-2-carboxamide] | 0.00032 | 0.000345 | 143 | 0.00983 |
| Cc1cc(NC(=O)c2cnc(OCC(F)(F)F)cn2)cc([C@@]2(C)N=C(N)S[C@@]3(C(F)F)C[C@@H]23)c1F [Example 1073, N-(3-((1S,5S,6S)-3-amino-1-(difluoromethyl)-5-methyl-2-thia-4-azabicyclo[4.1.0]hept-3-en-5-yl)-4-fluoro-5-methylphenyl)-5-(2,2,2-trifluoroethoxy)pyrazine-2-carboxamide] | 0.000842 | 0.00323 | 1300 | 0.0515 |
| Cc1cc(NC(=O)c2cnc(OCc3ncco3)cn2)cc([C@@]2(C)N=C(N)S[C@@]3(C(F)F)C[C@@H]23)c1F [Example 1074, N-(3-((1S,5S,6S)-3-amino-1-(difluoromethyl)-5-methyl-2-thia-4-azabicyclo[4.1.0]hept-3-en-5-yl)-4-fluoro-5-methylphenyl)-5-(oxazol-2-ylmethoxy)pyrazine-2-carboxamide] | 0.00057 | 0.000489 | 1330 | 0.0167 |
| Cc1noc(COc2cnc(C(=O)Nc3cc(C)c(F)c([C@@]4(C)N=C(N)S[C@@]5(C(F)F)C[C@@H]45)c3)cn2)n1 [Example 1075, N-(3-((1S,5S,6S)-3-amino-1-(difluoromethyl)-5-methyl-2-thia-4-azabicyclo[4.1.0]hept-3-en-5-yl)-4-fluoro-5-methylphenyl)-5-((3-methyl-1,2,4-oxadiazol-5-yl)methoxy)pyrazine-2-carboxamide] | 0.00152 | 0.00153 | 1250 | 0.198 |
